# Results reported in patent US6395732B1, “Pyrimidin-aminomethyl-pyridine derivatives, their preparation and their use in the control of helicobacter bacteria” (BYK Gulden Lomberg Chemische Fabrik GmbH, priority 1998, dated 2002).
# Key:
# Helicobacter pylori = test: Activity against Helicobacter pylori, agar method of Iwahi et al. (MIC 50); format: cell-based; details: Helicobacter pylori, 96 h; Columbia agar (Oxoid), growth period of 4 days; approximate values; read-out: Appr. MIC 50
# Text: The compounds of the formula I were investigated with respect to their activity against Helicobacter pylori following the method described by Tomoyuki Iwahi et al. (Antimicrobial Agents and Chemotherapy, 1991, 490-496) using Columbia agar (Oxoid) and a growth period of 4 days.
SMILES,MIC50 (Helicobacter pylori),melting point
"Cc1c(SCc2ccco2)ccnc1CNc1ncncc1Cl [Compound 59, (5-Chloro-pyrimidin-4-yl)-[4-(furan-2-ylmethylsulfanyl)-3-methyl-pyridin-2-ylmethyl]-amine]",≤ 0.1 µg/mL,169 to 170 °C
"Cc1nc(C)c(Cl)c(NCc2nccc(OCCSCCn3c([N+](=O)[O-])cnc3C)c2C)n1 [Compound 32, (5-Chloro-2,6-dimethyl-pyrimidin-4-yl)-(3-methyl-4-{2-[2-(2-methyl-5-nitro-imidazol-1-yl)-ethylsulfanyl]-ethoxy}-pyridin-2-ylmethyl)-amine]",≤ 0.1 µg/mL,139 to 144 °C
"Cc1nc(C)c(Cl)c(NCc2nccc(SCCCSc3sccc3[N+](=O)[O-])c2C)n1 [Compound 40, (5-Chloro-2,6-dimethyl-pyrimidin-4-yl)-{3-methyl-4-[3-(3-nitro-thiophen-2-ylsulfanyl)-propylsulfanyl]-pyridin-2-ylmethyl}-amine]",≤ 0.1 µg/mL,174 to 180 °C
"Cc1nc(C)c(Cl)c(NCc2nccc(SCc3ccncc3)c2C)n1 [Compound 46, (5-Chloro-2,6-dimethyl-pyrimidin-4-yl)-[3-methyl-4-(pyridin-4-ylmethylsulfanyl)-pyridin-2-ylmethyl]-amine]",≤ 0.1 µg/mL,188 to 191.9 °C
"Cc1nc(C)c(Cl)c(NCc2nccc(SCCCN3CCN(Cc4ccncc4)CC3)c2C)n1.Cl [Compound 23, (5-Chloro-2,6-dimethylpyrimidin-4-yl)-{3-methyl-4-[3-(4-pyridin-4-ylmethylpiperazin-1-yl)propylsulfanyl]pyridin-2-ylmethyl}amine hydrochloride]",≤ 0.1 µg/mL,166 to 168 °C
"Cc1nc(C)c(Cl)c(NCc2nccc(OCCCSCc3ccncc3)c2C)n1 [Compound 34, (5-Chloro-2,6-dimethyl-pyrimidin-4-yl)-{3-methyl-4-[3-(pyridin-4-ylmethylsulfanyl)-propoxy]-pyridin-2-ylmethyl}-amine]",≤ 0.1 µg/mL,111 to 113 °C
"Cc1nc(C)c(Cl)c(NCc2nccc(SCCCSCc3cccnc3)c2C)n1 [Compound 47, (5-Chloro-2,6-dimethyl-pyrimidin-4-yl)-{3-methyl-4-[3-(pyridin-3-ylmethylsulfanyl)-propylsulfanyl]-pyridin-2-ylmethyl}-amine]",≤ 0.1 µg/mL,104 to 105 °C
"Cc1c(OCCSCc2ccncc2)ccnc1CNc1ncncc1Cl [Compound 54, (5-Chloro-pyrimidin-4-yl)-{3-methyl-4-[2-(pyridin-4-ylmethylsulfanyl)-ethoxy)-pyridine-2-ylmethyl}-amine]",≤ 0.1 µg/mL,119 to 121 °C
"Cc1nc(C)c(Cl)c(NCc2nccc(SCCCSCc3ccccn3)c2C)n1 [Compound 48, (5-Chloro-2,6-dimethyl-pyrimidin-4-yl)-{3-methyl-4-[3-(pyridin-2-ylmethylsulfanyl)-propylsulfanyl]-pyridin-2-ylmethyl}-amine]",≤ 0.1 µg/mL,100 to 101 °C
"Cc1nc(C)c(Cl)c(NCc2nccc(SCCCSCc3ccncc3)c2C)n1 [Compound 24, (5-Chloro-2,6-dimethylpyrimidin-4-yl)-{3-methyl-4-[3-(pyridin-4-ylmethylsulfanyl)propylsulfanyl]pyridin-2-ylmethyl}amine]",≤ 0.1 µg/mL,124 to 125 °C
"Cc1nc(C)c(Cl)c(NCc2nccc(OCCOCCSCCO)c2C)n1 [Compound 35, 2-[2-(2-{2-[(5-Chloro-2,6-dimethyl-pyrimidin-4-ylamino)-methyl]-3-methyl-pyridin-4-yloxy}-ethoxy)-ethylsulfanyl]-ethanol]",≤ 0.1 µg/mL,114 to 116 °C
"Cc1nc(C)c(Cl)c(NCc2nccc(SCCOCCSCc3ccncc3)c2C)n1 [Compound 42, (5-Chloro-2,6-dimethyl-pyrimidin-4-yl)-(3-methyl-4-{2-[2-(pyridin-4-ylmethylsulfanyl)-ethoxy]-ethylsulfanyl}-pyridin-2-ylmethyl)-amine]",≤ 0.1 µg/mL,68 to 71 °C
"Cc1nc(C)c(Cl)c(NCc2nccc(SCCCSCC3CN(C)C(=O)O3)c2C)n1 (stereo not shown) [Compound 5, 5-(3-{2-[(5-Chloro-2,6-dimethylpyrimidin-4-ylamino)methyl]-3-methylpyridin-4-yl-sulfanyl}propylsulfanylmethyl)-3-methyloxazolidin-2-one]",≤ 0.1 µg/mL,121 °C
"Cc1nc(C)c(Cl)c(NCc2nccc(SCCOCCSCc3cccnc3)c2C)n1 [Compound 52, (5-Chloro-2,6-dimethyl-pyrimidin-4-yl)-(3-methyl-4-{2-[2-(pyridin-3-ylmethylsulfanyl)-ethoxy]-ethylsulfanyl}-pyridin-2-ylmethyl)-amine]",≤ 0.1 µg/mL,90 to 92 °C
"Cc1nc(C)c(Cl)c(NCc2nccc(SCC3CCCN(C)C3)c2C)n1 (stereo not shown) [Compound 44, (5-Chloro-2,6-dimethyl-pyrimidin-4-yl)-[3-methyl-4-(1-methyl-piperidin-3-ylmethylsulfanyl)-pyridin-2-ylmethyl]-amine]",≤ 0.1 µg/mL,148 to 149 °C
"Cc1nc(C)c(Cl)c(NCc2nccc(SCCOCCSCc3ccccn3)c2C)n1 [Compound 53, (5-Chloro-2,6-dimethyl-pyrimidin-4-yl)-(3-methyl-4-{2-[2-(pyridin-2-ylmethylsulfanyl)-ethoxy]ethylsulfanyl}-pyridin-2-ylmethyl)-amine]",≤ 0.1 µg/mL,70 to 72 °C
"Cc1nc(C)c(Cl)c(NCc2nccc(N(C)CCCSCCn3c([N+](=O)[O-])cnc3C)c2Cl)n1 [Compound 18, (5-Chloro-2,6-dimethylpyrimidin-4-yl)-[3-chloro-4-(methyl-{3-[2-(2-methyl-5nitroimidazol-1-yl)ethylsulfanyl]propyl}amino)pyridin-2-ylmethyl]amine]",≤ 0.1 µg/mL,123 to 126 °C
"Cc1nc(C)c(Cl)c(NCc2nccc(SCCCCSCCO)c2C)n1 [Compound 37, 2-(4-{2-[(5-Chloro-2,6-dimethyl-pyrimidin-4-ylamino)-methyl]-3-methyl-pyridin-4-ylsulfanyl}-butylsulfanyl)-ethanol]",≤ 0.1 µg/mL,142 to 143 °C
"Cc1nc(C)c(Cl)c(NCc2nccc(OCCCCSCCO)c2C)n1 [Compound 36, 2-(4-{2-[(5-Chloro-2,6-dimethyl-pyrimidin-4-ylamino)-methyl]-3-methyl-pyridin-4-yloxy}-butylsulfanyl)-ethanol]",≤ 0.1 µg/mL,116 to 118 °C

# Now from value to molecule:
MIC50 (Helicobacter pylori),melting point,SMILES
≤ 0.1 µg/mL,145 to 147 °C,"Cc1nc(C)c(Cl)c(NCc2nccc(SCCCSCCn3c([N+](=O)[O-])cnc3C)c2C)n1 [Compound 27, (5-Chloro-2,6-dimethylpyrimidin-4-yl)-(3-methyl-4-{3-[2-(2-methyl-5-nitroimidazol-1-yl)-ethylsulfanyl]propylsulfanyl}pyridin-2-ylmethyl)amine]"
≤ 0.1 µg/mL,142 to 144 °C,"Cc1nc(C)c(Cl)c(NCc2nccc(SCCCCSCCn3c([N+](=O)[O-])cnc3C)c2C)n1 [Compound 19, (5-Chloro-2,6-dimethylpyrimidin-4-yl)-(3-methyl-4-{4-[2-(2-methyl-5-nitroimidazol-1-yl)-ethylsulfanyl]butylsulfanyl}pyridin-2-ylmethyl)amine]"
≤ 0.1 µg/mL,148 to 149 °C,"Cc1c(SCCCSCc2ccncc2)ccnc1CNc1ncncc1Cl [Compound 8, (5-Chloropyrimidin-4-yl)-{3-methyl-4-[3-(pyridin-4-ylmethylsulfanyl)propylsulfanyl]-pyridin-2-ylmethyl}amine]"
≤ 0.1 µg/mL,235 to 241 °C (dec.),"Cc1nc(C)c(Cl)c(NCc2nccc(SCCOCCOCC(F)(F)F)c2C)n1.Cl [Compound 4, (5-Chloro-2,6-dimethylpyrimidin-4-yl)-(3-methyl-4-{2-[2-(2,2,2-trifluoroethoxy)ethoxy]ethylsulfanyl}pyridin-2-ylmethyl)amine hydrochloride]"
≤ 0.1 µg/mL,140 to 142 °C,"Cc1nc(C)c(Cl)c(NCc2nccc(OCCSCc3ccncc3)c2C)n1 [Compound 30, (5-Chloro-2,6-dimethyl-pyrimidin-4-yl)-{3-methyl-4-[2-(pyridin-4-ylmethylsulfanyl)-ethoxy]-pyridin-2-ylmethyl}-amine]"
≤ 0.1 µg/mL,158 to 159 °C,"Cc1nc(C)c(Cl)c(NCc2nccc(SCCCSc3ncccn3)c2C)n1 [Compound 10, (5-Chloro-2,6-dimethylpyrimidin-4-yl)-{3-methyl-4-[3-(pyrimidin-2-ylsulfanyl)propylsulfanyl]-pyridin-2-ylmethyl}amine]"
≤ 0.1 µg/mL,169 to 171 °C,"Cc1nc(C)c(Cl)c(NCc2nccc(OCCCSCCn3c([N+](=O)[O-])cnc3C)c2C)n1 [Compound 33, (5-Chloro-2,6-dimethyl-pyrimidin-4-yl)-(3-methyl-4-{3-[2-(2-methyl-5-nitro-imidazol-1-yl)-ethylsulfanyl]-propoxy}-pyridin-2-ylmethyl)-amine]"
≤ 0.1 µg/mL,112 to 115 °C,"Cc1nc(C)c(Cl)c(NCc2nccc(SCCCSCCSc3ncccn3)c2C)n1 [Compound 41, (5-Chloro-2,6-dimethyl-pyrimidin-4-yl)-(3-methyl-4-{3-[2-(pyrimidin-2-ylsulfanyl)-ethylsulfanyl]-propylsulfanyl}-pyridin-2-ylmethyl)-amine]"
≤ 0.1 µg/mL,134 to 137 °C,"Cc1nc(C)c(Cl)c(NCc2nccc(SCCCSCCO)c2C)n1 [Compound 31, 2-(3-{2-[(5-Chloro-2,6-dimethyl-pyrimidin-4-ylamino)-methyl]-3-methyl-pyridin-4-ylsulfanyl}-propylsulfanyl)-ethanol]"
≤ 0.1 µg/mL,145 to 147 °C,"Cc1c(OCCSCCn2c([N+](=O)[O-])cnc2C)ccnc1CNc1ncncc1Cl [Compound 49, (5-Chloro-pyrimidin-4-yl)-(3-methyl-4-{2-[2-(2-methyl-5-nitro-imidazol-1-yl)-ethylsulfanyl]-ethoxy}-pyridin-2-ylmethyl)-amine]"
